# Measurements from PubChem BioAssay AID2060329 (Molecular Pharmacology Branch, DTP, NCI, 2025).
# Tested on: MCF7 multi-cell spheroids with HUVEC/MSC, viability
# Assay: Anticancer human tumor MCF7 cell line growth inhibition [IpAb];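 also: spheroids exposed to agents for seven days before readout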
# Settings: for IC50: curve of first compound; for viability, T/C: stronger effect = lower value
# In short: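 Multi-cell spheroids of 60% tumour cells, 25% HUVEC and 15% MSC in ultra-low-attachment U-bottom wells, treated with agents combined with ipatasertib or abemaciclib. Half-log ranges top out near clinical Cmax, or 10 microM when Cmax is unknown.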
compound,measurement,setting,value
C=CCn1c(=O)c2cnc(Nc3ccc(N4CCN(C)CC4)cc3)nc2n1-c1cccc(C(C)(C)O)n1 + CCN1CCN(Cc2ccc(Nc3ncc(F)c(-c4cc(F)c5nc(C)n(C(C)C)c5c4)n3)nc2)CC1,IC50,second compound 0.01 µM,485 nM
same,IC50,second compound 0.0316 µM,561 nM
same,IC50,second compound 0.1 µM,741 nM
same,IC50,second compound 0.316 µM,965 nM
same,IC50,second compound 1 µM,850 nM
same,"viability, T/C","second compound 0.01 µM, first compound 0.0316 µM",94.5%
same,"viability, T/C","second compound 0.01 µM, first compound 0.1 µM",90.6%
same,"viability, T/C","second compound 0.01 µM, first compound 0.316 µM",60.1%
same,"viability, T/C","second compound 0.01 µM, first compound 1 µM",32.8%
same,"viability, T/C","second compound 0.01 µM, first compound 3.16 µM",25.6%
same,"viability, T/C","second compound 0.01 µM, first compound 10 µM",25.6%
same,"viability, T/C","second compound 0.0316 µM, first compound 0.0316 µM",91.4%
same,"viability, T/C","second compound 0.0316 µM, first compound 0.1 µM",87.7%
same,"viability, T/C","second compound 0.0316 µM, first compound 0.316 µM",63.4%
same,"viability, T/C","second compound 0.0316 µM, first compound 1 µM",36.3%
same,"viability, T/C","second compound 0.0316 µM, first compound 3.16 µM",25.7%
same,"viability, T/C","second compound 0.0316 µM, first compound 10 µM",23.7%
same,"viability, T/C","second compound 0.1 µM, first compound 0.0316 µM",113%
same,"viability, T/C","second compound 0.1 µM, first compound 0.1 µM",83.5%
same,"viability, T/C","second compound 0.1 µM, first compound 0.316 µM",71%
same,"viability, T/C","second compound 0.1 µM, first compound 1 µM",42.6%
same,"viability, T/C","second compound 0.1 µM, first compound 3.16 µM",29%
same,"viability, T/C","second compound 0.1 µM, first compound 10 µM",36.7%
same,"viability, T/C","second compound 0.316 µM, first compound 0.0316 µM",109%
same,"viability, T/C","second compound 0.316 µM, first compound 0.1 µM",109%
same,"viability, T/C","second compound 0.316 µM, first compound 0.316 µM",88%
same,"viability, T/C","second compound 0.316 µM, first compound 1 µM",49%
same,"viability, T/C","second compound 0.316 µM, first compound 3.16 µM",37.9%
same,"viability, T/C","second compound 0.316 µM, first compound 10 µM",36.8%
same,"viability, T/C","second compound 1 µM, first compound 0.0316 µM",88%
same,"viability, T/C","second compound 1 µM, first compound 0.1 µM",94%
same,"viability, T/C","second compound 1 µM, first compound 0.316 µM",87.1%
same,"viability, T/C","second compound 1 µM, first compound 1 µM",43.9%
same,"viability, T/C","second compound 1 µM, first compound 3.16 µM",41.6%
same,"viability, T/C","second compound 1 µM, first compound 10 µM",42.1%
Cn1cnc2c(F)c(Nc3ccc(Br)cc3Cl)c(C(=O)NOCCO)cc21 + CCN1CCN(Cc2ccc(Nc3ncc(F)c(-c4cc(F)c5nc(C)n(C(C)C)c5c4)n3)nc2)CC1,IC50,second compound 0.01 µM,> 3000 nM
same,IC50,second compound 0.0316 µM,> 3000 nM
same,IC50,second compound 0.1 µM,> 3000 nM
same,IC50,second compound 0.316 µM,> 3000 nM
same,IC50,second compound 1 µM,> 3000 nM
same,"viability, T/C","second compound 0.01 µM, first compound 0.00949 µM",104%
same,"viability, T/C","second compound 0.01 µM, first compound 0.03 µM",121%
same,"viability, T/C","second compound 0.01 µM, first compound 0.0949 µM",103%
same,"viability, T/C","second compound 0.01 µM, first compound 0.3 µM",113%
same,"viability, T/C","second compound 0.01 µM, first compound 0.949 µM",125%
same,"viability, T/C","second compound 0.01 µM, first compound 3 µM",100%
same,"viability, T/C","second compound 0.0316 µM, first compound 0.00949 µM",94.4%
same,"viability, T/C","second compound 0.0316 µM, first compound 0.03 µM",113%
same,"viability, T/C","second compound 0.0316 µM, first compound 0.0949 µM",109%
same,"viability, T/C","second compound 0.0316 µM, first compound 0.3 µM",116%
same,"viability, T/C","second compound 0.0316 µM, first compound 0.949 µM",119%
same,"viability, T/C","second compound 0.0316 µM, first compound 3 µM",99%
same,"viability, T/C","second compound 0.1 µM, first compound 0.00949 µM",130%
same,"viability, T/C","second compound 0.1 µM, first compound 0.03 µM",120%
same,"viability, T/C","second compound 0.1 µM, first compound 0.0949 µM",117%
same,"viability, T/C","second compound 0.1 µM, first compound 0.3 µM",127%
same,"viability, T/C","second compound 0.1 µM, first compound 0.949 µM",127%
same,"viability, T/C","second compound 0.1 µM, first compound 3 µM",113%
same,"viability, T/C","second compound 0.316 µM, first compound 0.00949 µM",119%
same,"viability, T/C","second compound 0.316 µM, first compound 0.03 µM",132%
same,"viability, T/C","second compound 0.316 µM, first compound 0.0949 µM",132%
same,"viability, T/C","second compound 0.316 µM, first compound 0.3 µM",126%
same,"viability, T/C","second compound 0.316 µM, first compound 0.949 µM",120%
same,"viability, T/C","second compound 0.316 µM, first compound 3 µM",108%
same,"viability, T/C","second compound 1 µM, first compound 0.00949 µM",107%
same,"viability, T/C","second compound 1 µM, first compound 0.03 µM",110%
same,"viability, T/C","second compound 1 µM, first compound 0.0949 µM",107%
same,"viability, T/C","second compound 1 µM, first compound 0.3 µM",95.5%
same,"viability, T/C","second compound 1 µM, first compound 0.949 µM",88.5%
same,"viability, T/C","second compound 1 µM, first compound 3 µM",88.5%
